Reference: US20080227688A1, “Inhibition of viral replication” (priority 2007, published 2008)
“Also recorded” adds a separate entry of the source. *1 amine or outer side, *2 acyl side, *3 side chain or, on linkers, in order; H or OH if unused. Where a SMILES comes first, the peptide text is derived from it. [ ]: non-standard residue; d: D form. The star is where a group is joined. hPhe = N[CH](CCc1ccccc1)C(=O)O; Morpholide = C1CN(*)CCO1; CO = O=C([*:1])[*:2]; CH2F = FC*

What was measured:
myxoma virus = type: cell-based, myxoma virus (strain Lausanne)
reovirus [1] = type: cell-based, Dearing strain of reovirus serotype 3
cellular cathepsin B = cellular cathepsin B (Homo sapiens, UniProt P07858); settings: cited from earlier work
HIV type 1 virus = type: cell-based, HIV type 1 strain (NL4-3)
reovirus [2] = assay: Electron microscopy of reovirus-infected HT1080 cells; type: cell-based, Dearing strain of reovirus serotype 3; settings: HT1080, MOI of 40, 20 μM, 48 hr post-infection
Protocol: FIGS. 2A-2B: Electron microscopic analysis of reovirus infected HT1080 cells in the presence or absence of Z-FA-FMK treatment. HT1080 cells grown to 50-70% confluency were infected with reovirus at MOI of 40, then either Z-FA-FMK (20 μM) or control medium was added in the culture medium. After 48 hr culture, cells were prepared for electron microscopic examination as described in the Examples. (FIG. 2A) HT1080 infected with reovirus in the absence of Z-FA-FMK showing scattered virions and viral inclusions (factory) (arrows) in the perinuclear region. Scale represents 500 nm×10,000 (above). […] Scale represents 100 nm×80,000 (FIG. 2B) HT1080 infected with reovirus in the presence of Z-FA-FMK showing scattered reovirus virion particles (arrows) but no reoviral inclusions in the perinuclear region. Scale represents 500 nm×10,000 (above). Scattered virions with empty shell (arrows) are present in perinuclear region (bottom). Scale represents 200 nm×40,000.
EM preparation was performed by the University of Calgary Microscopy & Imaging Facility. Cells grown on glass slides were rinsed briefly with PBS (phosphate buffered saline) and fixed with 4% EM grade glutaraldehyde in 0.1 M cacodylate buffer (pH 7.4) for 1 hr at room temperature (RT). After washing three times with the same buffer, cells were post-fixed in 1% osmium tetroxide buffered with 0.1 M cacodylate for 1 hr at RT. […]

influenza A virus = assay: Influenza A infection of Mv1Lu cells, FACS; type: cell-based, Flu type A (A/New Cale/H1N1); settings: 20 μM, 4 days
reovirus [3] = assay: HT1080 tumor xenograft in SCID mice with intratumoral reovirus, immunohistochemistry of tumor and heart; type: in vivo; settings: 0.02 mg intratumorally, 16 days post-viral injection
Protocol: FIGS. 4A-4B: Z-FA-FMK blocks reovirus infection in vivo. (FIG. 4A) HT1080 cells were injected subcutaneously into hind flanks of SCID mice. After palpable tumors were established (11 days after implantation), tumors were injected with Live reovirus (L Reo; n=5 tumors), UV-inactivated reovirus (D Reo; n=5 tumors), Z-FA-FMK (FA; n=5 tumors) and Live reovius suspended in Z-FA-FMK solution (Reo+FA; n=5 tumors). Tumor growth was measured externally using calipers. Z-FA-FMK was dissolved in DMSO and administered as 0.02 mg suspended in PBS intratumorally per mouse everyday up to 7 days post viral injection, and every 2 days until completion of the experiment. […] Paraffin sections of tumors and heart tissues were analyzed by indirect immunohistochemical staining using reovirus antiserum as described in the Examples. […]
SCID mice (6-8 weeks, Charles River, Wilmington, Mass.) received a single subcutaneous implantation of 5×10^6 cells of HT1080 cells suspended in PBS. […] Tumor growth was measured externally using calipers and the volume was determined by the equation V=(L×W^2)×0.5, where L is the largest dimension and W is the largest dimension perpendicular to L. Z-FA-FMK was dissolved in DMSO and administered as 0.02 mg suspended in PBS intratumorally per mouse every day up to 7 days post viral injection, and every 2 days until completion of the experiment. […]

reovirus [4] = settings: pharmacological inhibition of cellular cathepsin B; cited from earlier work

C[C@H](NC(=O)[C@H](Cc1ccccc1)NC(=O)OCc1ccccc1)C(=O)CF [Z-FA-FMK, N-benzyloxycarbonyl-Phe-Ala-fluoromethylketone]
GFP expression level of BGMK monolayers (myxoma virus): significantly suppressed
myxoma infectivity (GFP expressing cells) (myxoma virus): inhibitory effects were not detectable
myxoma virus foci development (myxoma virus): significantly suppressed as Z-FA-FMK dosages were increased; also recorded: the inhibition of foci development is more readily detectable
reoviral replication potential by FACS (reoviral antigen) (reovirus [1]): effectively suppressed reoviral replication potential in a dose-dependent manner
reovirus replication (cytopathic morphology, viral antigens by western blotting and FACS) (reovirus [1]): completely blocked reovirus replication
inactivation of cathepsin B (cellular cathepsin B): potent inactivator of cellular cathepsin B
viral replication activity of HIV-1 (HIV type 1 virus): did not affect viral replication activity
viral factory formation (EM) (reovirus [2]): did not form these viral factories
virion morphology (EM) (reovirus [2]): all of the scattered viral particles contained empty capsids
viral replication activity of influenza A (influenza A virus): did not affect viral replication activity
reovirus replication activity in heart tissue (immunohistochemistry) (reovirus [3]): effectively blocked
reovirus replication activity in tumor tissue (immunohistochemistry) (reovirus [3]): effectively blocked

Z-Val-Ala-Asp-fluoromethylketone [Z-VAD-FMK]
reovirus-mediated cytopathogenicity (reovirus [1]): effectively inhibited reovirus-mediated cytopathogenicity

O=C(CF)C(CCc1ccccc1)NC(=O)C(Cc1ccccc1)NC(=O)N1CCOCC1 (stereo not drawn) [Mu-FhF-FMK, N-Morpholineurea-phenylalanyl-homophenylalanyl-fluoromethylketone] ({Morpholide-CO}-Phe-[hPhe]-CH2F; configuration not given here)
reovirus-mediated cytopathogenicity (reovirus [1]): effectively inhibited reovirus-mediated cytopathogenicity

CCCNC(=O)[C@H]1O[C@@H]1C(=O)N[C@H](C(=O)N1CCC[C@H]1C(=O)OC)[C@@H](C)CC [CA-074Me]
reovirus viral yield (reovirus [4]): decreased viral yields yet not a complete blockage of viral yield
